Assay results taken from PubChem BioAssay (NCI).
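Each compound was tested at five concentrations against cells in 96-well plates for 48 hours. At the TGI there is no net growth.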

Experiments:
Test in all cases: NCI anticancer screen, dose series, 48 h
CAKI-1 renal = system: CAKI-1 renal
NCI/ADR-RES ovarian = system: NCI/ADR-RES ovarian
OVCAR-5 ovarian = system: OVCAR-5 ovarian
SF-268 CNS = system: SF-268 CNS
T-47D breast = system: T-47D breast
SNB-75 CNS = system: SNB-75 CNS
UACC-62 melanoma = system: UACC-62 melanoma
LOX IMVI melanoma = system: LOX IMVI melanoma
M19-MEL melanoma = system: M19-MEL melanoma
DMS 273 small cell lung = system: DMS 273 small cell lung
SNB-78 CNS = system: SNB-78 CNS
KM20L2 colon = system: KM20L2 colon

Row | Structure (SMILES) | TGI (CAKI-1 renal) [µM] | TGI (NCI/ADR-RES ovarian) [µM] | TGI (OVCAR-5 ovarian) [µM] | TGI (SF-268 CNS) [µM] | TGI (T-47D breast) [µM] | TGI (SNB-75 CNS) [µM] | TGI (UACC-62 melanoma) [µM] | TGI (LOX IMVI melanoma) [µM] | TGI (M19-MEL melanoma) [µM] | TGI (DMS 273 small cell lung) [µM] | TGI (SNB-78 CNS) [µM] | TGI (KM20L2 colon) [µM]
1 | CCC1(C)C=Cc2c(cc(O)c3c(=O)c4ccccc4n(C)c23)O1 (stereo not given) | > 10 | > 10 | > 10 | > 10 | > 10 | > 10 | > 10 | > 10 |  |  |  | 
2 | CC(=O)OCC1OC(n2c3c(cc(C#N)c2=S)CCCCC3)C(OC(C)=O)C(OC(C)=O)C1OC(C)=O (stereo not given) | > 100 | > 100 | > 100 | > 100 | > 100 | > 100 | > 100 | > 100 |  |  |  | 
3 | COc1ccc(C2COc3cc(O)c(O)cc3C2)cc1 (stereo not given) | 52.9 | 27.1 | 264 | 127 |  | 164 | 46.3 | 500 | 86.6 | 160 | 268 | 221
4 | CC(C)(C)OC(=O)NCCCNC1(c2cc3ccccc3s2)CCCCC1 | 26.8 | 30.2 | 27.5 | 33.8 | 39.7 | 30.2 | 31.4 | 35.2 |  |  |  | 
5 | O=[N+]([O-])/C(C(Cl)=C(Cl)Cl)=C(\N1CCCCC1)n1cncn1 | 25.2 | 56 | 32.1 | 26.9 | 38.3 | 49.4 | 33 | 42.1 |  |  |  | 
6 | COc1ccc(NS(=O)(=O)c2ccc(NC(NC(=O)CC(C)C)(C(F)(F)F)C(F)(F)F)cc2)nn1 | > 100 | > 100 | > 100 | > 100 | > 100 | > 100 | > 100 | > 100 |  |  |  | 
7 | COc1ccc(/C=C2\N=C(SC)NC2=O)cc1 | > 100 | > 100 | > 100 | > 100 | > 100 | > 100 | > 100 | > 100 |  |  |  | 
8 | C=CCOc1ccc(C2C(C(=O)OCC)C(=O)CC(C)(O)C2C(=O)OCC)cc1OC (stereo not given) | > 100 | > 100 | > 100 | > 100 | > 100 | > 100 | > 100 | > 100 |  |  |  | 
9 | CC(=O)O[C@H]1CC[C@@]2(C)C(=CC[C@H]3[C@@H]4C[C@H](N5CCOCC5)[C@H](OC(C)=O)[C@@]4(C)CC[C@@H]32)C1 | > 100 | > 100 | > 100 | > 100 | > 100 | > 100 | > 100 | > 100 |  |  |  | 
10 | CC12CCC(O)CC1CCC1C2CCC2(C)C(C(=O)CC(O)C(F)(F)F)CCC12 (stereo not given) | > 62.3 | > 100 | > 76.5 | > 100 | > 100 | 81.1 | > 100 | > 100 |  |  |  | 
11 | [N-]=[N+]=NC1=C(c2ccccn2)C(=O)c2cccc3cccc1c23 | > 100 | > 100 | > 100 | 65.9 | > 100 | > 100 | > 100 | > 100 |  |  |  | 
12 | O=C1c2cccnc2-c2nccc3c2c1nc1cc(Br)ccc13 | 0.591 | 0.0711 | 0.527 | 0.555 | 0.848 | 0.81 | 0.373 | 0.205 |  |  |  | 
13 | CCOc1ccc(/C=C2/C(=O)N=C(NC(C)=O)N2C)cc1 | > 100 | > 100 | > 100 | > 100 | > 100 | > 100 | > 100 | > 100 |  |  |  | 
14 | Cc1nc2sc3ccccc3n2c(=O)c1N=Nc1ccc(Cl)cc1 | > 100 | > 100 | > 100 | > 100 | > 100 | > 100 | > 100 | > 100 |  |  |  | 
